# Assay results taken from patent publication US20150275306A1, “METHODS AND MEANS FOR PREDICTING RESISTANCE TO ANTI-CANCER TREATMENT” (Stichting Het Nederlands Kanker Instituut Antoni van …, priority 2012, published 2015).
# Key:
# H3255 cells = format: cell-based
# Experimental: (§1) H3122, PC9, H3255, SK-CO-1 and SW1417 cells were cultured in RPMI with 8% heat inactivated fetal bovine serum, penicillin and streptomycin at 5% CO2. […] Subclones of each cell line expressing the murine ecotropic receptor were generated and used for all experiments shown. Phoenix cells were used as producers of retroviral supernatants as described at www.stanford.edu/group/nolan/retroviral_systems/phx.html. […] Infected cells were selected for successful retroviral integration using 2 μg/ml of puromycin.
# (§2) For long-term cell proliferation assays, cells were seeded into 6-well plates (2-5×10E4 cells/well) and cultured both in the absence and presence of drugs as indicated. […] All knockdown and overexpression experiments were done by retroviral or lentiviral infection. All relevant assays were performed independently at least three times.
# PC9 cells = assay: Long-term cell proliferation (colony formation) assay in PC9; format: cell-based; conditions: for effect of recombinant TGFbeta treatment on drug response, PC9: TGFbeta-dosage dependent, gefitinib 50 nM, cisplatin 0.7 μM
# Experimental: as §1, §2
# H3122 cells [1] = assay: Long-term cell proliferation (colony formation) assay in H3122; format: cell-based; conditions: for effect of recombinant TGFbeta treatment on drug response, H3122: TGFbeta-dosage dependent, crizotinib, cisplatin 2 μM; for effect of MED12 knockdown on response to chemotherapy drugs, H3122: shMED12 #4 and #5, 2 μM cisplatin or 2.5 μM 5-FU, 18 days; for effect of MED12 knockdown on response to ALK inhibitors, H3122: shMED12 #1-3, 300 nM crizotinib or 2.5 nM NVP-TAE684
# Experimental: (§3) H3122, PC9, H3255, SK-CO-1 and SW1417 cells were cultured in RPMI with 8% heat inactivated fetal bovine serum, penicillin and streptomycin at 5% CO2. HEK 293T, Phoenix and A375, SK-MEL-28 and Huh-7 cells were cultured in DMEM with 8% heat-inactivated fetal bovine serum, penicillin and streptomycin at 5% CO2. Subclones of each cell line expressing the murine ecotropic receptor were generated and used for all experiments shown. Phoenix cells were used as producers of retroviral supernatants as described at www.stanford.edu/group/nolan/retroviral_systems/phx.html. HEK 293T cells were used as producers of lentiviral supernatants as described at www.broadinstitute.org/rnai/public/resources/protocols. The calcium phosphate method was used for the transfection of Phoenix and 293T cells. Infected cells were selected for successful retroviral integration using 2 μg/ml of puromycin.
# (§4) For long-term cell proliferation assays, cells were seeded into 6-well plates (2-5×10E4 cells/well) and cultured both in the absence and presence of drugs as indicated. More details are described (Huang et al., 2009. Cancer Cell 15: 328-340). All knockdown and overexpression experiments were done by retroviral or lentiviral infection. All relevant assays were performed independently at least three times.
# Huh-7 HCC cells = assay: Long-term cell proliferation (colony formation) assay in Huh-7; format: cell-based
# Experimental: as §3, §4
# [2] = tested on: Vimentin, N-cadherin and p-ERK in Huh7 cells; assay: Western blotting of mesenchymal markers and p-ERK in Huh7; format: cell-based; conditions: 50 picoM of TGFbeta for 6 days
# Source text: (§5) Antibody against MED12 (A300-774A) and MED13 (A301-278A) was from Bethyl Laboratories; antibodies against Vimentin (RV202) and N-cadherin (ab18203) were from Abcam; antibody against p-SMAD2 (Ser465/467, #3101), SMAD2 (L16D3, #3103), pMEK1/2 (S217/221, #9121) and MEK1/2 (L38C12, #4694) were from Cell Signaling; anti-Flag M2 (F1804) was from Sigma; antibodies against HSP90 (H-114), p-ERK (E-4), ERK1 (C-16), ERK2 (C-14), CDK8 (D-9), Lamin A/C (636), SP1 (PEP2), alpha-TUBULIN (H-183), TGFbeta R2 (C-16), CDK8 (D9) and normal rabbit IgG control were from Santa Cruz Biotechnology; A mixture of ERK1 and ERK2 antibodies was used for detection of total ERK; 12CA5 hybridoma supernatant was also used to detect HA tagged-TGFbeta R2.
# [3] = tested on: MEK/ERK activation in H3122 cells; assay: Western blotting of MEK/ERK activation in H3122; format: cell-based; conditions: data not shown
# Source text: as §5
# [4] = tested on: MEK/ERK activation in H3255 cells; assay: Western blotting of MEK/ERK activation in H3255; format: cell-based
# Source text: as §5
# [5] = tested on: A375 melanoma cells (BRAFV600E); assay: Long-term cell proliferation (colony formation) assay in A375; format: cell-based; conditions: without targeted cancer drugs
# Experimental: as §1, §2
# [6] = tested on: MEK/ERK activation in PC9 cells; assay: Western blotting of MEK/ERK activation in PC9; format: cell-based
# Source text: as §5
# TGFbeta receptor Type II = TGFbeta receptor Type II (Homo sapiens, UniProt P37173); conditions: cited from earlier work
# [7] = tested on: SK-CO-1 colorectal cancer cells (KRASV12); assay: Long-term cell proliferation (colony formation) assay in SK-CO-1; format: cell-based
# Experimental: as §3, §4
# H3122 cells [8] = conditions: parental H3122, EML4-ALK translocation; McDermott et al., 2008; cited from earlier work
# Chain of TGFbeta receptor Type II (P37173 23-567, species assumed): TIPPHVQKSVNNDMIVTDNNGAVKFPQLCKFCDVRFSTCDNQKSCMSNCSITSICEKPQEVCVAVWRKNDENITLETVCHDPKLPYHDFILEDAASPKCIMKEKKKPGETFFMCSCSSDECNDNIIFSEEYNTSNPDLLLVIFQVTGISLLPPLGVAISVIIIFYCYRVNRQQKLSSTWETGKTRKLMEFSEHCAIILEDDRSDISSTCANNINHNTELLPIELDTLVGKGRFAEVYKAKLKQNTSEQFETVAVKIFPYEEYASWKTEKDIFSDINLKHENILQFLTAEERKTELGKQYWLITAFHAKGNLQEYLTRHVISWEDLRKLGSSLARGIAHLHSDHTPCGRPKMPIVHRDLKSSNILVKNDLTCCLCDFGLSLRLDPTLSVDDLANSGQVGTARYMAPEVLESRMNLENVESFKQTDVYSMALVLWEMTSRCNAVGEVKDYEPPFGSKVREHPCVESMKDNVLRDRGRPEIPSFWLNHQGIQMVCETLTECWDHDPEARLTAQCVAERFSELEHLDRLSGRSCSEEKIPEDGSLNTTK
compound,measurement,setting,value
C#Cc1cccc(Nc2ncnc3cc(OCCOC)c(OCCOC)cc23)c1 [erlotinib],"effect of MED12 knockdown on response to EGFR inhibitors, H3255",H3255 cells,conferred resistance
same,"effect of MED12 knockdown on response to EGFR inhibitors, PC9",PC9 cells,conferred resistance
N.N.[Cl][Pt][Cl] [cisplatin],"effect of recombinant TGFbeta treatment on drug response, H3122",H3122 cells [1],leads to resistance
same,"effect of MED12 knockdown on response to chemotherapy drugs, H3122",H3122 cells [1],confers resistance
same,"effect of recombinant TGFbeta treatment on drug response, PC9",PC9 cells,leads to resistance
same,"effect of MED12 knockdown on response to cisplatin, PC9","PC9 cells; shMED12 #4 and #5, 0.37 or 1.1 μM cisplatin, 21 days",confers resistance
CNC(=O)c1cc(Oc2ccc(NC(=O)Nc3ccc(Cl)c(C(F)(F)F)c3)cc2)ccn1 [sorafenib],"effect of MED12 knockdown on response to sorafenib, Huh-7","Huh-7 HCC cells; 2 μM sorafenib, 21 days",became resistant
recombinant TGFbeta: Recombinant hTGFbeta 1 (240-B/CF) purchased from R&D systems,"levels of Vimentin, N-cadherin and p-ERK in Huh7 cells",[2],"increased levels of Vimentin, N-cadherin and p-ERK"
same,MEK/ERK activation in H3122 cells,[3],caused MEK/ERK activation
same,MEK/ERK activation in H3255 cells,[4],caused MEK/ERK activation
same,"proliferation of A375 cells, TGFbeta alone",[5],growth inhibition
same,"proliferation of Huh-7 cells, TGFbeta alone","Huh-7 HCC cells; without targeted cancer drugs, data not shown",growth inhibition
same,MEK/ERK activation in PC9 cells,[6],caused MEK/ERK activation
COc1cc2ncnc(Nc3ccc(F)c(Cl)c3)c2cc1OCCCN1CCOCC1 [gefitinib],"effect of recombinant TGFbeta treatment on drug response, PC9",PC9 cells,leads to resistance
"Cc1cccc(-c2nn3c(c2-c2ccnc4ccc(C(N)=O)cc24)CCC3)n1 [LY2157299, 4-(2-(6-methylpyridin-2-yl)-5,6-dihydro-4H-pyrrolo[1,2-b]pyrazol-3-yl)quinoline-6-carboxamide]","proliferation of control and MED12KD H3122 cells, monotherapy","H3122 cells [1]; 1 μM LY2157299 alone, 14 days",little effect
same,IC50,TGFbeta receptor Type II,2 nM
"Cn1cnc2c(F)c(Nc3ccc(Br)cc3Cl)c(C(=O)NOCCO)cc21 [AZD6244, seluteminib]","effect of MED12 knockdown on response to MEK inhibitor, SK-CO-1","[7]; 0.5 μM AZD6244, 28 days",conferred resistance
same,"effect of recombinant TGFbeta treatment on drug response, SK-CO-1","[7]; TGFbeta-dosage dependent, AZD6244 0.5 μM",leads to resistance
same,sensitivity of SK-CO-1 cells,[7]; parental cells,highly sensitive
C[C@@H](Oc1cc(-c2cnn(C3CCNCC3)c2)cnc1N)c1c(Cl)ccc(F)c1Cl [crizotinib],"effect of recombinant TGFbeta treatment on drug response, H3122",H3122 cells [1],leads to resistance
same,proliferation of control H3122 cells,"H3122 cells [1]; pRS control cells, 300 nM crizotinib alone, 28 days",potently inhibited the proliferation
same,"effect of MED12 knockdown on response to ALK inhibitors, H3122",H3122 cells [1]; 28 days,conferred resistance
same,sensitivity of H3122 cells to selective ALK inhibitors,H3122 cells [8],exquisitely sensitive
COc1cc(N2CCC(N3CCN(C)CC3)CC2)ccc1Nc1ncc(Cl)c(Nc2ccccc2S(=O)(=O)C(C)C)n1 [NVP-TAE684],"effect of MED12 knockdown on response to ALK inhibitors, H3122",H3122 cells [1]; 28 days,conferred resistance
same,sensitivity of H3122 cells to selective ALK inhibitors,H3122 cells [8],exquisitely sensitive
"O=c1[nH]cc(F)c(=O)[nH]1 [5-FU, 5-Fluorouracil]","effect of MED12 knockdown on response to chemotherapy drugs, H3122",H3122 cells [1],confers resistance
